Measurements published in publication PMC4104781 (Journal of controlled release : official journal of the …, 2013).

Key:
[1] = type: physicochemical
[2] = TPT lactone-carboxylate interconversion; type: physicochemical; conditions: 37 °C, aqueous buffers pH 5.92-7.67, fit of kinetic interconversion model
[3] = Spectrometric; type: physicochemical; conditions: aqueous buffer solutions at various pH, pH 3.5
[4] = DSPC/DSPE-PEG2K bilayer, model fit of release profiles
[5] = DSPC/DSPE-PEG2K liposomes, 38.7 ± 0.1 °C, model fit over pH 3.35-7.67

CC[C@@]1(O)C(=O)OCc2c1cc1n(c2=O)Cc2cc3c(CN(C)C)c(O)ccc3nc2-1 [TPT, topotecan]
binding to the phospholipid bilayer, anionic carboxylate form (Ca) [1, 4]: negligible binding | binding to the phospholipid bilayer, zwitterionic lactone (Ln) [1, 4]: negligible binding | membrane partition coefficient, lactone species with unionized phenol (Lp) [1, 4]: 61.7 ± 5.9 | bilayer transport of the anionic carboxylate form (Ca) [1, 5]: impermeable | transport rate constant, cationic lactone species (Lp) [1, 5]: 0.51 ± 0.07 h⁻¹ | transport rate constant, ring-opened carboxylate zwitterion (Cn) [1, 5]: 5.7 ± 0.5 h⁻¹ | transport rate constant, zwitterionic lactone (Ln) [1, 5]: 33.9 ± 4.6 h⁻¹ | base-catalyzed ring-closing rate constant (kc,OH) [2]: 7.4 ± 0.3 × 10^8 mol^−1hr^−1 | carboxylic acid/lactone equilibrium constant (K0) [2]: 1.98 ± 0.07 × 10^−3 | pKa [3]: 6.56 ± 0.12
